# Source: patent US20260009799A1, “CA-IX TARGETING FLUORESCENT PROBES” (BRACCO IMAGING S.P.A., priority 2022, published 2026)
# Legend:
# [1] = target: T1, CA-IX expressing HT-29 cells (Homo sapiens, UniProt Q16790); assay: Cellular binding assessment by flow cytometry; settings: for Kd: HT-29 cells, 1 hour 30 min on ice, flow cytometry, read-out: CA-IX receptor affinity (KD, nM to HT-29 cells); for KD to HT-29 cells, fold lower than corresponding Reference compound: compound 1 vs Reference 2, compound 2 vs Reference 3; for KD to HT-29 cells compared with Reference 1 (HF-1): versus Reference 1 (HF-1)
# T1 construct: CA-IX, expressed in its physiological environment at the cell-surface; host or cells: HT-29 human colorectal adenocarcinoma cells
# Experimental: Human colon adenocarcinoma HT-29 cells (ATCC) used for the cellular binding experiments were cultured in McCoy's 5A medium (Sigma-Aldrich), supplemented with 10% HyClone Fetal Clone III (Euroclone), 2 mM L-glutamine (Sigma-Aldrich), 100 IU/mL penicillin, 0.1 mg/mL streptomycin, 0.25 μg/mL amphotericin B (Antibiotic-Antimycotic solution, Life Technologies) and cells were grown at 37° C. in humidified atmosphere enriched with 5% CO2. DPBS without MgCl2 and CaCl2) (Sigma-Aldrich) was used for cell rinsing.
# Indeed, by using the anti-human CA-IX antibody MAB2188 (R&D Systems) and the DAKO […], according to the instruction of the datasheet, HT-29 cells were estimated to express about 150,000 CA-IX molecules per cell. Thus, HT-29 cells were used to measure the binding of all compounds to CA-IX, expressed in its physiological environment at the cell-surface. Briefly, HT-29 cells were detached with StemPro® Accutase® Cell Dissociation Reagent (Life Technologies), collected in DPBS and counted. At least 2·10^5 HT-29 cells were placed in 1.5 mL tubes on ice and resuspended in 50-100 μL of cold FACS buffer (eBioscience™ Flow Cytometry Staining Buffer, Invitrogen) containing scalar concentrations of compounds (HF-1, reference 2, and compound 1: range 0-20 μM; reference 3: range 0-24 μM; compound 2: range 0-10 μM). After incubation (1 hour and 30 min on ice in the dark), cells were rinsed 3 times in 300 μL of cold FACS buffer by centrifugation (5 min, 4° C., 350 RCF), discarding the supernatant. Cell pellets were then resuspended in 200 μL of cold FACS buffer (or in an adequate volume in order to obtain no more than 1000 recorded events per μL during FACS analysis) and analyzed with the flow cytometer Accuri™ C6 (BD Biosciences). The mean cell-associated fluorescence was plotted against concentration and the dissociation constant at equilibrium (KD) was inferred by mathematical fitting with GraphPad Prism v.9 software, according to the following equation: […]
# where Bmax is the maximum specific binding in the same units as Y; KD is the equilibrium dissociation constant, in the same units as X; NS is the slope of nonspecific binding in Y units divided by X units; and background is the amount of nonspecific binding with no added Compound.
# All compounds were analyzed in at least three independent experiments.
# target receptor CA-IX = target: T2, target receptor CA-IX (Homo sapiens, UniProt Q16790); assay: Cell uptake competition with 100x excess acetazolamide; format: cell-based; settings: for % uptake in presence of 100x excess acetazolamide: 1 μM, 2 hours at 37° C., residual cellular uptake; for share of cell-associated fluorescence due to non-specific cellular uptake: flow cytometry
# T2 construct: endogenous in cells
# Experimental: The receptor-mediated uptake, i.e. whether the uptake of the probes was mediated by binding to the target receptor CA-IX, was analyzed by performing competition experiments.
# [2] = system: HT-29 excised tumors and tissues; assay: Ex vivo biodistribution in excised tumors and organs; parameters: species or system mice; settings: for ex vivo TBR, times higher than respective References 2 and 3: 1 nmol/mouse, 24 hours; for Organ-to-muscle ratio, intestine (mean ± SD) / Organ-to-muscle ratio, kidney (mean ± SD) / Organ-to-muscle ratio, liver (mean ± SD) / Organ-to-muscle ratio, skin (mean ± SD) / Organ-to-muscle ratio, spleen (mean ± SD) / Organ-to-muscle ratio, stomach (mean ± SD): ex vivo, 24 hours after administration; for Organ-to-muscle ratio, intestine (mean ± SD) / Organ-to-muscle ratio, kidney (mean ± SD) / Organ-to-muscle ratio, liver (mean ± SD) / Organ-to-muscle ratio, skin (mean ± SD) / Organ-to-muscle ratio, spleen (mean ± SD) / Organ-to-muscle ratio, stomach (mean ± SD) / ex vivo TBR (mean ± SD), HT-29 tumor: 1 nmol; for ex vivo TBR (mean ± SD), HT-29 tumor: samples collected 24 hours after administration, tumor vs hind limb muscle
# Experimental: The ex vivo biodistribution of the representative compounds 1 and 2 and of the reference compounds (at 1 nmol/mouse) was evaluated in HT-29 excised tumors and tissues at the end of the in vivo OI sessions 24 hours post intravenous administration. At the end of the in vivo experiment, animals were euthanized by overdose of gaseous anesthesia followed by cervical dislocation. Tumor tissue, muscle, and other organs of interest were removed for ex vivo fluorescent signal measurements. The fluorescence signal intensity was measured by the IVIS Spectrum system. Regions of interest (ROIs) were drawn around each organ and tumor using the Living Image Software (PerkinElmer) and evaluating signal intensity in the tissues (expressed as Average Radiant Efficiency). The ratio between the fluorescence signal in the organs and tumor was then calculated to assess the contrast to hind limb muscle (representing the background).
# [3] = Optical characterization (excitation/emission maxima, molar extinction coefficient); format: physicochemical; settings: in water
# CA-IX on HT-29 cells = target: T3, CA-IX on HT-29 cells (Homo sapiens, UniProt Q16790); assay: Cellular specificity: binding to HT-29 cells in competition with MSC8 antibody; format: cell-based; settings: compound 1 0.125 μM, MSC8 0.0125/0.125/1.25/2.5 μM, on ice
# T3 construct: CA-IX, expressed in its physiological environment at the cell-surface; host or cells: HT-29 human colorectal adenocarcinoma cells
# Experimental: HT-29 cells were co-incubated, on ice in suspension, with compound 1, at the established concentration of 0.125 μM, and different concentrations of MSC8 (0.1×, 1×, 10× and 20× with respect to compound 1, i.e. 0.0125/0.125/1.25/2.5 μM); in addition, HT-29 cells were incubated with either compound 1 alone, or each concentration of MSC8 alone as well. The resulting binding of both compound 1 and MSC8 was then recorded as cell-associated fluorescence intensity, using for MSC8 a secondary antibody labelled with Alexa Fluor™ 488 (ThermoFischer), and compared to the one resulting from both compounds alone, taken as 100%.
Kd [1] [nM],"KD to HT-29 cells, fold lower than corresponding Reference compound [1]",KD to HT-29 cells compared with Reference 1 (HF-1) [1],% uptake in presence of 100x excess acetazolamide (target receptor CA-IX) [%],share of cell-associated fluorescence due to non-specific cellular uptake (target receptor CA-IX),"Organ-to-muscle ratio, intestine (mean ± SD) [2]","Organ-to-muscle ratio, kidney (mean ± SD) [2]","Organ-to-muscle ratio, liver (mean ± SD) [2]","Organ-to-muscle ratio, skin (mean ± SD) [2]","Organ-to-muscle ratio, spleen (mean ± SD) [2]","Organ-to-muscle ratio, stomach (mean ± SD) [2]",molar extinction coefficient (ε) [3] [M⁻¹ cm⁻¹],binding of compound 1 to HT-29 cells in presence of MSC8 (CA-IX on HT-29 cells),SMILES,"ex vivo TBR, times higher than respective References 2 and 3 [2]","ex vivo TBR (mean ± SD), HT-29 tumor [2]"
58 ± 9,more than 4 fold,2 fold,11.3 ± 1.7,about 10%,1.6 ± 0.3,7.1 ± 1.5,3.3 ± 0.4,1.5 ± 0.3,1.0 ± 0.1,6.8 ± 1.3,250000,–,CC(CC[N+]1=C(/C=C/C=C/C=C/C=C2/N(CCCCCC(=O)NCCCCCCCC(=O)Nc3nnc(S(N)(=O)=O)s3)c3ccc(C(=O)NC[C@H](O)[C@@H](O)[C@H](O)[C@H](O)CO)cc3C2(C)C)C(C)(C)c2cc(C(=O)NC[C@H](O)[C@@H](O)[C@H](O)[C@H](O)CO)ccc21)S(=O)(=O)[O-] (some centres unmarked) [Compound 2],about 1.5 times,23.1 ± 6.7
174 ± 15,2 fold,rather comparable,6.5 ± 2.2,about 10%,1.8 ± 0.4,6.0 ± 1.1,4.2 ± 0.7,1.2 ± 0.1,0.9 ± 0.2,5.4 ± 0.8,250000,reduced in a dose-dependent manner,CC1(C)C(/C=C/C2=C(Oc3ccc(S(=O)(=O)O)cc3)C(=C/C=C3/N(CCCCCC(=O)NCCCCCCCC(=O)Nc4nnc(S(N)(=O)=O)s4)c4ccc(C(=O)NC[C@H](O)[C@@H](O)[C@H](O)[C@H](O)CO)cc4C3(C)C)/CCC2)=[N+](CCCCS(=O)(=O)[O-])c2ccc(C(=O)NC[C@H](O)[C@@H](O)[C@H](O)[C@H](O)CO)cc21 [Compound 1],about 1.5 times,13.4 ± 2.2
